ChEMBL document CHEMBL3588822, “Synthetic 1,2,3-triazole-linked glycoconjugates bind with high affinity to human galectin-3” (Bioorg Med Chem, 2015)

Assays:
Galectin-3 [1] = target: T1, Galectin-3 (Homo sapiens, UniProt P17931); assay: Inhibition of human recombinant wild type galectin 3 after 60 mins by surface plasmon resonance immunosensor assay
Galectin-3 [2] = target: T1, Galectin-3; assay: Inhibition of human recombinant wild type galectin 3 first carbohydrate recognition domain after 60 mins by surface plasmon resonance immunosensor assay
Galectin-3 [3] = target: T1, Galectin-3; assay: Inhibition of human recombinant wild type galectin 3 second carbohydrate recognition domain after 60 mins by surface plasmon resonance immunosensor assay

T1 sequence (P17931 whole entry, the tested form may be a part): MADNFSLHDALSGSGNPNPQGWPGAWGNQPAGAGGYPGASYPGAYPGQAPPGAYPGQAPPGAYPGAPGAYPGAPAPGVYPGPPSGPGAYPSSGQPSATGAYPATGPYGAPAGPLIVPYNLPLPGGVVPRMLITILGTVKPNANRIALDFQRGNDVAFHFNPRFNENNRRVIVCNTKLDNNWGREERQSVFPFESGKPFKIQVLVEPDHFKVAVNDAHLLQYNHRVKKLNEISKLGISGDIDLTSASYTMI

Kd (Galectin-3 [1]) [µM] | Kd (Galectin-3 [2]) [µM] | Kd (Galectin-3 [3]) [µM] | SMILES
11.1 | – | – | CO[C@H]1O[C@H](CO)[C@H](O)[C@H](OCc2cn([C@@H](CC(=O)O)C(=O)O)nn2)[C@H]1O
28.1 | – | – | CO[C@H]1O[C@H](CO)[C@H](O)[C@H](OCc2cn([C@@H](Cc3cc4ccccc4[nH]3)C(=O)O)nn2)[C@H]1O
– | 0.5 | 19 | OC[C@H]1O[C@@H](O[C@H]2[C@H](O)[C@@H](O)[C@H](OCCOCCOCCn3cc(CO[C@@H]4O[C@H](CO)[C@@H](O[C@@H]5O[C@H](CO)[C@H](O)[C@H](O)[C@H]5O)[C@H](O)[C@H]4O)nn3)O[C@@H]2CO)[C@H](O)[C@@H](O)[C@H]1O
4.56 | – | – | CO[C@H]1O[C@H](CO)[C@H](O)[C@H](OCc2cn([C@@H](CCCCN)C(=O)O)nn2)[C@H]1O
19.9 | – | – | CO[C@H]1O[C@H](CO)[C@H](O)[C@H](OCc2cn([C@@H](Cc3ccc(O)cc3)C(=O)O)nn2)[C@H]1O
7.96 | – | – | CO[C@H]1O[C@H](CO)[C@H](O)[C@H](OCc2cn([C@@H](Cc3ccccc3)C(=O)O)nn2)[C@H]1O
88.2 | – | – | CO[C@H]1O[C@H](CO)[C@H](O)[C@H](OCc2cn([C@H](C(=O)O)[C@@H](C)O)nn2)[C@H]1O
